Measured values as given in PubChem BioAssay AID2060616 (Molecular Pharmacology Branch, DTP, NCI, 2025).
pIC50: −log10 of the molar value.

System: 377384-186-R-J1-PDC complex spheroid viability
Assay: Anticancer human tumor 377384-186-R-J1-PDC patient-derived pancreatic carcinoma cell line growth inhibition [CLK]
Conditions: for pIC50: curve of first compound; for viability, T/C: stronger effect = lower value
Procedure, shortened: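 Patient-derived tumor cells grown as complex spheroids with HUVEC endothelial cells and mesenchymal stem cells, treated with drug combinations. Concentrations descend in half-log steps from near clinical Cmax, or from 10 microM if Cmax unknown.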

[1] = second compound 0.0316 µM, first compound 0.0316 µM
[2] = second compound 0.0316 µM, first compound 0.1 µM
[3] = second compound 0.0316 µM, first compound 0.316 µM
[4] = second compound 0.0316 µM, first compound 1 µM
[5] = second compound 0.0316 µM, first compound 3.16 µM
[6] = second compound 0.0316 µM, first compound 10 µM
[7] = second compound 0.1 µM, first compound 0.0316 µM
[8] = second compound 0.1 µM, first compound 0.1 µM
[9] = second compound 0.1 µM, first compound 0.316 µM
[10] = second compound 0.1 µM, first compound 1 µM
[11] = second compound 0.1 µM, first compound 3.16 µM
[12] = second compound 0.1 µM, first compound 10 µM
[13] = second compound 0.316 µM, first compound 0.0316 µM
[14] = second compound 0.316 µM, first compound 0.1 µM
[15] = second compound 0.316 µM, first compound 0.316 µM
[16] = second compound 0.316 µM, first compound 1 µM
[17] = second compound 0.316 µM, first compound 3.16 µM
[18] = second compound 0.316 µM, first compound 10 µM
[19] = second compound 1 µM, first compound 0.0316 µM
[20] = second compound 1 µM, first compound 0.1 µM
[21] = second compound 1 µM, first compound 0.316 µM
[22] = second compound 1 µM, first compound 1 µM
[23] = second compound 1 µM, first compound 3.16 µM
[24] = second compound 1 µM, first compound 10 µM
[25] = second compound 3.16 µM, first compound 0.0316 µM
[26] = second compound 3.16 µM, first compound 0.1 µM
[27] = second compound 3.16 µM, first compound 0.316 µM
[28] = second compound 3.16 µM, first compound 1 µM
[29] = second compound 3.16 µM, first compound 3.16 µM
[30] = second compound 3.16 µM, first compound 10 µM
[31] = second compound 10 µM, first compound 0.0316 µM
[32] = second compound 10 µM, first compound 0.1 µM
[33] = second compound 10 µM, first compound 0.316 µM
[34] = second compound 10 µM, first compound 1 µM
[35] = second compound 10 µM, first compound 3.16 µM
[36] = second compound 10 µM, first compound 10 µM
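Further: spheroids exposed to agents for 7 days before reading.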
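Wherever viability, T/C is given: luminescence signal used as a stand-in for viable cells.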

## CC(=O)O[C@H]1C(=O)[C@@]2(C)[C@H]([C@H](OC(=O)c3ccccc3)[C@]3(O)C[C@H](OC(=O)[C@H](O)[C@@H](NC(=O)c4ccccc4)c4ccccc4)C(C)=C1C3(C)C)[C@]1(OC(C)=O)CO[C@@H]1C[C@@H]2O + CN1CCN(c2cc(C(=O)Nc3cc4cc(-c5cnn(C)c5)ccc4cn3)ccn2)CC1
Second compound 0.0316 µM
  pIC50: > 7.50
Second compound 0.1 µM
  pIC50: > 7.50
Second compound 0.316 µM
  pIC50: > 7.50
Second compound 1 µM
  pIC50: > 7.50
Second compound 3.16 µM
  pIC50: > 7.50
Second compound 10 µM
  pIC50: > 7.50
[1]
  viability, T/C: 9.18%
[2]
  viability, T/C: 9.07%
[3]
  viability, T/C: 7.15%
[4]
  viability, T/C: 8.23%
[5]
  viability, T/C: 10.1%
[6]
  viability, T/C: 14.8%
[7]
  viability, T/C: 7.97%
[8]
  viability, T/C: 9.15%
[9]
  viability, T/C: 10.9%
[10]
  viability, T/C: 10.7%
[11]
  viability, T/C: 8.46%
[12]
  viability, T/C: 15.1%
[13]
  viability, T/C: 9.05%
[14]
  viability, T/C: 9.91%
[15]
  viability, T/C: 10.6%
[16]
  viability, T/C: 11.4%
[17]
  viability, T/C: 15.1%
[18]
  viability, T/C: 14.1%
[19]
  viability, T/C: 0.76%
[20]
  viability, T/C: 0.53%
[21]
  viability, T/C: 1.35%
[22]
  viability, T/C: 0.93%
[23]
  viability, T/C: 0.78%
[24]
  viability, T/C: 1.13%
[25]
  viability, T/C: 0.39%
[26]
  viability, T/C: 0.51%
[27]
  viability, T/C: 0.58%
[28]
  viability, T/C: 0.7%
[29]
  viability, T/C: 1.32%
[30]
  viability, T/C: 2.27%
[31]
  viability, T/C: 0.34%
[32]
  viability, T/C: 0.28%
[33]
  viability, T/C: 0.49%
[34]
  viability, T/C: 0.48%
[35]
  viability, T/C: 0.4%
[36]
  viability, T/C: 0.37%

## COc1ccc([C@@H](O)c2cc(-c3ncnc4cc(N5CCOCC5)ccc34)c(F)cc2Cl)nn1 + CN1CCN(c2cc(C(=O)Nc3cc4cc(-c5cnn(C)c5)ccc4cn3)ccn2)CC1
Second compound 0.0316 µM
  pIC50: 5.22
Second compound 0.1 µM
  pIC50: 5.37
Second compound 0.316 µM
  pIC50: > 7.50
Second compound 1 µM
  pIC50: > 7.50
Second compound 3.16 µM
  pIC50: > 7.50
Second compound 10 µM
  pIC50: > 7.50
[1]
  viability, T/C: 119%
[2]
  viability, T/C: 111%
[3]
  viability, T/C: 88.8%
[4]
  viability, T/C: 78.2%
[5]
  viability, T/C: 59.3%
[6]
  viability, T/C: 42.5%
[7]
  viability, T/C: 114%
[8]
  viability, T/C: 99.9%
[9]
  viability, T/C: 73.7%
[10]
  viability, T/C: 70.6%
[11]
  viability, T/C: 57.6%
[12]
  viability, T/C: 37.2%
[13]
  viability, T/C: 18.3%
[14]
  viability, T/C: 22.8%
[15]
  viability, T/C: 16.8%
[16]
  viability, T/C: 18.1%
[17]
  viability, T/C: 18.5%
[18]
  viability, T/C: 16%
[19]
  viability, T/C: 0.76%
[20]
  viability, T/C: 0.63%
[21]
  viability, T/C: 0.7%
[22]
  viability, T/C: 1.13%
[23]
  viability, T/C: 1.12%
[24]
  viability, T/C: 1.02%
[25]
  viability, T/C: 0.38%
[26]
  viability, T/C: 0.32%
[27]
  viability, T/C: 1.16%
[28]
  viability, T/C: 0.36%
[29]
  viability, T/C: 0.35%
[30]
  viability, T/C: 0.98%
[31]
  viability, T/C: 0.49%
[32]
  viability, T/C: 0.35%
[33]
  viability, T/C: 0.33%
[34]
  viability, T/C: 0.39%
[35]
  viability, T/C: 1.26%
[36]
  viability, T/C: 0.36%

## COc1cccc2c1C(=O)c1c(O)c3c(c(O)c1C2=O)CC(O)(C(=O)CO)CC3OC1CC(N)C(O)C(C)O1 (stereo not given) + CN1CCN(c2cc(C(=O)Nc3cc4cc(-c5cnn(C)c5)ccc4cn3)ccn2)CC1
Second compound 0.0316 µM
  pIC50: > 7.50
Second compound 0.1 µM
  pIC50: > 7.50
Second compound 0.316 µM
  pIC50: > 7.50
Second compound 1 µM
  pIC50: > 7.50
Second compound 3.16 µM
  pIC50: > 7.50
Second compound 10 µM
  pIC50: > 7.50
[1]
  viability, T/C: 16.3%
[2]
  viability, T/C: 7.2%
[3]
  viability, T/C: 1.82%
[4]
  viability, T/C: 0.52%
[5]
  viability, T/C: 3.08%
[6]
  viability, T/C: 7.38%
[7]
  viability, T/C: 17.7%
[8]
  viability, T/C: 5.86%
[9]
  viability, T/C: 1.2%
[10]
  viability, T/C: 0.36%
[11]
  viability, T/C: 4.01%
[12]
  viability, T/C: 8.5%
[13]
  viability, T/C: 15.2%
[14]
  viability, T/C: 4.88%
[15]
  viability, T/C: 0.54%
[16]
  viability, T/C: 0.77%
[17]
  viability, T/C: 3.95%
[18]
  viability, T/C: 9.46%
[19]
  viability, T/C: 0.41%
[20]
  viability, T/C: 0.53%
[21]
  viability, T/C: 0.23%
[22]
  viability, T/C: 1.24%
[23]
  viability, T/C: 3.93%
[24]
  viability, T/C: 8.63%
[25]
  viability, T/C: 0.22%
[26]
  viability, T/C: 0.41%
[27]
  viability, T/C: 1.02%
[28]
  viability, T/C: 1.45%
[29]
  viability, T/C: 6.27%
[30]
  viability, T/C: 9.38%
[31]
  viability, T/C: 0.49%
[32]
  viability, T/C: 0.33%
[33]
  viability, T/C: 1.94%
[34]
  viability, T/C: 0.34%
[35]
  viability, T/C: 0.53%
[36]
  viability, T/C: 0.18%

## CCCS(=O)(=O)Nc1ccc(F)c(C(=O)c2c[nH]c3ncc(-c4ccc(Cl)cc4)cc23)c1F + CNC(=O)c1ccc(Nc2nc(OC3CCCC3)c3c(-c4ccc5nc(C)oc5c4)c[nH]c3n2)c(OC)c1
Second compound 0.0316 µM
  pIC50: < 5.00
Second compound 0.1 µM
  pIC50: 5.79
Second compound 0.316 µM
  pIC50: > 7.50
Second compound 1 µM
  pIC50: > 7.50
Second compound 3.16 µM
  pIC50: > 7.50
Second compound 10 µM
  pIC50: > 7.50
[1]
  viability, T/C: 103%
[2]
  viability, T/C: 118%
[3]
  viability, T/C: 115%
[4]
  viability, T/C: 123%
[5]
  viability, T/C: 107%
[6]
  viability, T/C: 52.5%
[7]
  viability, T/C: 65.1%
[8]
  viability, T/C: 70%
[9]
  viability, T/C: 49.1%
[10]
  viability, T/C: 59.7%
[11]
  viability, T/C: 44%
[12]
  viability, T/C: 37.2%
[13]
  viability, T/C: 19.9%
[14]
  viability, T/C: 22.5%
[15]
  viability, T/C: 23.6%
[16]
  viability, T/C: 22.6%
[17]
  viability, T/C: 32.6%
[18]
  viability, T/C: 24.3%
[19]
  viability, T/C: 18.9%
[20]
  viability, T/C: 20.6%
[21]
  viability, T/C: 23.6%
[22]
  viability, T/C: 27%
[23]
  viability, T/C: 30.7%
[24]
  viability, T/C: 24.8%
[25]
  viability, T/C: 19.8%
[26]
  viability, T/C: 25.4%
[27]
  viability, T/C: 23.9%
[28]
  viability, T/C: 28%
[29]
  viability, T/C: 29%
[30]
  viability, T/C: 23.4%
[31]
  viability, T/C: 21.5%
[32]
  viability, T/C: 23.3%
[33]
  viability, T/C: 26.8%
[34]
  viability, T/C: 29.1%
[35]
  viability, T/C: 31.1%
[36]
  viability, T/C: 29%

## COC1C=CCC(C)C(C)S(=O)(=O)NC(=O)c2ccc3c(c2)N(CC2CCC21)CC1(CCCc2cc(Cl)ccc21)CO3 (stereo not given) + CNC(=O)c1ccc(Nc2nc(OC3CCCC3)c3c(-c4ccc5nc(C)oc5c4)c[nH]c3n2)c(OC)c1
Second compound 0.0316 µM
  pIC50: 5.23
Second compound 0.1 µM
  pIC50: 5.35
Second compound 0.316 µM
  pIC50: > 7.50
Second compound 1 µM
  pIC50: > 7.50
Second compound 3.16 µM
  pIC50: > 7.50
Second compound 10 µM
  pIC50: > 7.50
[1]
  viability, T/C: 100%
[2]
  viability, T/C: 99.6%
[3]
  viability, T/C: 97.8%
[4]
  viability, T/C: 92.9%
[5]
  viability, T/C: 84.2%
[6]
  viability, T/C: 22.4%
[7]
  viability, T/C: 57.9%
[8]
  viability, T/C: 61.9%
[9]
  viability, T/C: 56%
[10]
  viability, T/C: 68.4%
[11]
  viability, T/C: 60%
[12]
  viability, T/C: 26.2%
[13]
  viability, T/C: 19.9%
[14]
  viability, T/C: 17.2%
[15]
  viability, T/C: 18.3%
[16]
  viability, T/C: 16.8%
[17]
  viability, T/C: 23%
[18]
  viability, T/C: 19.2%
[19]
  viability, T/C: 19%
[20]
  viability, T/C: 17.6%
[21]
  viability, T/C: 14.9%
[22]
  viability, T/C: 12.4%
[23]
  viability, T/C: 17.8%
[24]
  viability, T/C: 21.9%
[25]
  viability, T/C: 18.9%
[26]
  viability, T/C: 18.9%
[27]
  viability, T/C: 13.4%
[28]
  viability, T/C: 13.9%
[29]
  viability, T/C: 14.6%
[30]
  viability, T/C: 20.8%
[31]
  viability, T/C: 18.5%
[32]
  viability, T/C: 16.6%
[33]
  viability, T/C: 15.1%
[34]
  viability, T/C: 12.4%
[35]
  viability, T/C: 12.3%
[36]
  viability, T/C: 18%
